Source: US9956225B2, “Treatment of myelodysplastic syndrome” (Boehringer Ingelheim International GmbH, priority 2013, dated 2018)

Columns and labels:
[1] = tested on: human AML cell line MV4;11; assay: Nude mouse xenograft model derived from human AML cell line MV4;11: tumor growth; type: in vivo; conditions: 21 days, MV4;11 xenograft in nude mice
Protocol: Tumor-bearing mice were treated for 3 weeks intravenously either with vehicle or once weekly with 10 mg/kg or 20 mg/kg Volasertib (BI 6727), respectively. Median tumor volumes are plotted over time. Day 1 was the first day, day 21 the last day of the experiment. Efficacy results from this xenograft model are considered valid for MDS.
MV4;11 (CRL-9591) cells were obtained from ATCC. According to the Catalogue of Somatic Mutations in Cancer of the Wellcome Trust Sanger Institute, UK, this cell line carries a mutation in the FLT3 gene. Cells were cultured in T175 tissue culture flasks at 37° C. and 5% CO2. The medium used was IMDM supplemented with 10% fetal calf serum, 1% NEAA, 1% sodium pyruvate and 1% glutamine.
Mice were 8-9 week-old athymic female BomTac: NMRI-Foxn1^nu purchased from Taconic, Denmark. After arrival in the animal facility, mice were allowed to adjust to ambient conditions for at least 3 days before they were used for experiments. They were housed in Macrolon® type II cages in groups of 5 under standardized conditions at 21.5±1.5° C. temperature and 55±10% humidity. […]
(§1) The tumor diameter was measured three times a week with a caliper. The volume of each tumor [in mm^3] was calculated according to the formula “tumor volume=length*diameter^2*π/6”. To monitor side effects of treatment, mice were inspected daily for abnormalities and body weight was determined three times a week. […]

[2] = Body weight change in MV4;11 nude mouse xenograft model (side effects); type: in vivo; conditions: 21 days, tumor-bearing nude mice
Protocol: Tumor-bearing mice were treated for 3 weeks intravenously either with vehicle or with 10 mg/kg or 20 mg/kg Volasertib, respectively, once weekly. Median changes in body weight compared to day 1 are plotted over time. Day 1 was the first day, day 21 the last day of the experiment.
Mice were 8-9 week-old athymic female BomTac: NMRI-Foxn1^nu purchased from Taconic, Denmark. After arrival in the animal facility, mice were allowed to adjust to ambient conditions for at least 3 days before they were used for experiments. They were housed in Macrolon® type II cages in groups of 5 under standardized conditions at 21.5±1.5° C. temperature and 55±10% humidity. Standardized diet (PROVIMI KLIBA) and autoclaved tap water were provided ad libitum.
Volasertib (BI 6727) was dissolved in hydrochloric acid (0.1 N), diluted with 0.9% NaCl and injected intravenously into the tail vein. An administration volume of 10 ml per kg body weight was used. The solution was freshly made up each injection day.
as §1

For `CC[C@@H]1C(=O)N(C)c2cnc(Nc3ccc(C(=O)N[C@H]4CC[C@H](N5CCN(CC6CC6)CC5)CC4)cc3OC)nc2N1C(C)C` [Volasertib, N-[trans-4-[4-(cyclopropylmethyl)-1-piperazinyl]cyclohexyl]-4-[[(7R)-7-ethyl-5,6,7,8-tetrahydro-5-methyl-8-(1-methylethyl)-6-oxo-2-pteridinyl]amino]-3-methoxy-benzamide], the “median T/C (ratio of median tumor volume of treated vs. control tumors)” value ([1]; 10 mg/kg once a week i.v.) was 76%, the “median T/C (ratio of median tumor volume of treated vs. control tumors)” value ([1]; 20 mg/kg once a week i.v.) was 38% and the “body weight gain (side effect profile)” value ([2]; 10 mg/kg once a week i.v.) was “body weight gain was comparable to vehicle”. The “body weight gain (side effect profile)” value ([2]; 20 mg/kg once a week i.v.) was “body weight gain was comparable to vehicle”.
